Measurements from publication PMC11232401, “Characterization of antimalarial activity of artemisinin-based hybrid drugs” (Antimicrobial Agents and Chemotherapy, 2024).
Read-outs that look alike come from different tables or passages of the source. Each block holds one compound with its values, some of them ahead of it.

Experiments:
P. falciparum 3D7 strain = test system: P. falciparum 3D7 strain; set-up: method as in PMID 31290221, PMID 34832911, PMID 38559731; details: asynchronous culture, SYBR Green I; read-out: IC50 (nM, median ± SEM) for P. falciparum 3D7 strain; cited from earlier work
P. falciparum Dd2 strain = test system: P. falciparum Dd2 strain; set-up: method as in PMID 31290221, PMID 34832911, PMID 38559731; details: asynchronous culture, SYBR Green I; read-out: IC50 (nM, median ± SEM) for P. falciparum Dd2 strain; cited from earlier work
P. berghei-infected mice = test system: P. berghei-infected mice; set-up: method as in PMID 31290221, PMID 34832911, PMID 38559731; details: Peters test; cited from earlier work
[1] = in vivo; cited from earlier work
[2] = test system: NF54 strain of P. falciparum; assay: Ring-stage-specific drug activity (pLDH); assay type: cell-based; details: Plasmodium falciparum, median ± SEM
Experimental: Each compound was dissolved in dimethyl sulfoxide (DMSO) and diluted in RPMI-1640 medium into seven different concentrations, which were tested against CQ-susceptible strains (NF54 or D10) or a CQ-resistant strain (W2). Each well of 96-well plates was filled with 100 µL drug and 100 µL parasitized RBC (asynchronous parasite culture), which were mixed to obtain a final parasitemia of 1.0% to 1.5% and 1.0% hematocrit. Plates were incubated for 72 h at 37°C in a standard gas mixture; then, parasite growth was determined by measuring the activity of the parasite lactate dehydrogenase (pLDH) ([38]). Briefly, at the end of incubation, the cultures were carefully resuspended, and 20 µL aliquots were removed and added to 100 µL Malstat reagent in a 96-well microplate. The Malstat reagent is made of 0.125% TritonX-100, 130 mM L-lactate, 30 mM Tris buffer, and 0.62 µM 3-acetylpyridine adenine dinucleotide. After that, 20 µL 1.9 µM nitro blue tetrazolium (NBT) and 0.24 µM phenazine ethyl sulfate were added to the plate. NBT was reduced to blueformazan and spectrophotometrically read at OD 650 nm using a Synergy 4 microplate reader (BioTek, Santa Clara, USA). […] IC50 values were expressed as means of two to three independent experiments, with each drug concentration in duplicate.
The NF54 strain of P. falciparum was employed to test the drugs’ activity against ring stages and asynchronous parasite culture (all stages). The ring stages were obtained by synchronization with D-Sorbitol using a standard method ([39]). Each well of 96-well plates was filled with 100 µL each drug and 100 µL culture containing ring-stage or asynchronous parasites, which were mixed to obtain a final parasitemia of 1.0% to 1.5% and 1.0% hematocrit. […] Plates were processed using the pLDH method, and IC50 values were calculated as described above. At least two to three independent experiments were performed, using two technical replicates.
^[a] Synchronized ring-stage parasites were incubated in the presence of compounds for 6 h, drugs were removed by washing, and plates were incubated for an additional 66 h. ^[b] Asynchronous parasites were incubated in the presence of compounds for 6 h, drugs were removed by washing, and plates were incubated for an additional 66 h. ^[c] Asynchronous parasites were incubated in the presence of compounds for 72 h. ^[a,b^] Experiments were performed in parallel. ^[d] […] Parasite viability was determined by parasite lactate dehydrogenase. Data are from three experiments performed in duplicate. MFQ = mefloquine; DHA = dihydroartemisinin; SEM = standard error of the mean.

[3] = test system: Ring stages of NF54 strain P. falciparum; assay: Antiplasmodial activity of drug combinations (pLDH, isobologram/FIC); assay type: cell-based; details: Plasmodium falciparum, mean (95% CI), tested in parallel with the combination of the same line
Experimental: The activity of the drug combinations against the P. falciparum NF54 strain was determined as described above. In each experiment, drugs were tested alone and in combination. Twofold serial dilutions of the drug solutions were made using fixed molar ratios of 1:1, 1:3, and 3:1 for each combination and using two technical replicates (ranging from 200 to 1.0 nM). Parasite growth was determined by the pLDH method, as described above. IC50 values for each drug alone or in combination were determined, and an isobologram analysis was performed by plotting the fractional inhibitory concentrations (FIC) for each combination and its component drugs separately. Individual FIC values were calculated as the IC50 of the drug combination divided by the IC50 of the drug in isolation. A dashed line was plotted to indicate any additive effect and distinguish antagonism (above the dashed line) from synergism (below the dashed line). Three independent experiments were performed, each one containing two replicates. Each experiment was used to represent an isobologram analysis [mean and 95% confidence interval (CI)].
Values represent one experiment; each concentration of drug combination was tested in technical duplicate. Black dashed line indicates ΣFIC = 1 (absolute additivity). […] FIC index <1 is synergistic, ~1 is additive, and >1 is antagonistic. Nondetrimental interactions are 0.25 <ΣFIC <1.25.
^[a] Values are the mean and 95% confidence interval of one experiment for each concentration of compounds in duplicate.

[4] = test system: ring stages of NF54 strain of P. falciparum; assay: Exposure time dependence in drug activity (pLDH); assay type: cell-based; details: Plasmodium falciparum
Experimental: Each well of 96-well plates was filled with 100 µL drug and 100 µL culture containing ring-stage P. falciparum (NF54 strain) parasites, which were mixed to obtain a final parasitemia of 1.0% to 1.5% and 1.0% hematocrit. Plates were incubated at 37°C in a standard gas mixture. After 3 h and 6 h, plates were centrifuged, cell pellets were washed as described above then returned to the incubator for an additional 69 h and 66 h, respectively. In parallel, the same experiment was left without the washing step, enabling continuous drug exposure throughout. Plates were processed using the pLDH method, and IC50 values were calculated as described above. Three independent experiments were performed using two technical replicates.
Figure S2: Exposure time dependence of antiparasitic activity against ring stages of CQ-sensitive strain NF54 of P. falciparum. Data associated to Figure 2B in the main text of the manuscript. Footnotes for table: ^[a] Synchronized ring-stage parasites were incubated in the presence of compounds at indicated times, drugs were removed by washing, and plates were incubated until 72 h.^[b] Parasites were incubated in the presence of compounds for 72 h. ^[a,b^] Experiments were performed in parallel (paired). Parasite viability was determined by parasite lactate dehydrogenase (pLDH) assay. Data are from three experiments performed in duplicate.^ [c] […] MFQ = mefloquine. DHA = dihydroartemisinin; SEM = standard error of the mean; N.S. = not statistically significant.

P. falciparum = assay: Parasite growth inhibition (cell potency); assay type: cell-based; details: Plasmodium falciparum; strain and exposure not stated at the place
[5] = test system: heme (iron II)-initiated β-hematin formation; assay: β-hematin inhibitory activity under reducing condition (R-BHIA); assay type: biochemical; details: mean (95% CI)
Experimental: The compounds were dissolved in DMSO and diluted in DMSO to six different concentrations (1.0–32 mM). Hemin (Fe^III[PPIX]Cl) (BioXtra, Sigma-Aldrich) was first dissolved in 0.1 M NaOH and then suspended in an 80:20 vol/vol mixture of DMSO and propionate buffer (0.1 M, pH 5.6) to a stock solution at 8 mM. Reduced glutathione (GSH) was dissolved in 0.1 M NaOH and then adjusted to 10 mM using propionate buffer (0.1 M, pH 5.6). […] Then, 20 µL of the drug was added, and the plates were incubated for 2 h at 37°C. The plastic film was removed after drug incubation, 160 µL propionate buffer (1.0 M, pH 5.6) was added, and plates were incubated for 18 h at 37°C. BHIA under the oxidizing condition (O-BHIA) was prepared in parallel without adding GSH. Controls included wells without drugs and wells containing PBS 1× instead of propionate buffer. Afterward, the plates were centrifuged, the supernatant was discarded, and the pellets of β-hematin crystals were washed twice with pure DMSO and then water. The resulting β-hematin crystals were then dissolved in 200 µL 0.1 M NaOH and diluted to a 1:8 ratio. Aliquots were then transferred into a new plate and read by UV-visible absorbance at […]. Percent of BHIA was calculated in comparison to untreated wells (no drugs), and IC50 was then calculated. Two independent experiments were performed using three replicates of each drug concentration ([46]).
(§1) Figure S6: A summary of IC50 values derived from β-hematin inhibitory activity (BHIA). Footnotes for table: ^[a,b^] Values are mean and 95% confidence interval of one experiment, each concentration in triplicate. ^[a] Using heme (Fe[II]PPIX[Cl]) as a starting reagent. ^[b] Using hematin (Fe[III]PPIX[OH]) as a starting reagent. ^[c] […] CQ = chloroquine. R-BHIA = reducing β-hematin inhibitory activity. O-BHIA = oxidizing β-hematin inhibitory activity.

[6] = test system: hematin (iron III)-initiated β-hematin formation; assay: β-hematin inhibitory activity under oxidizing condition (O-BHIA); assay type: biochemical; details: hematin as starting reagent; mean (95% CI)
Experimental: The compounds were dissolved in DMSO and diluted in DMSO to six different concentrations (1.0–32 mM). Hemin (Fe^III[PPIX]Cl) (BioXtra, Sigma-Aldrich) was first dissolved in 0.1 M NaOH and then suspended in an 80:20 vol/vol mixture of DMSO and propionate buffer (0.1 M, pH 5.6) to a stock solution at 8 mM. Reduced glutathione (GSH) was dissolved in 0.1 M NaOH and then adjusted to 10 mM using propionate buffer (0.1 M, pH 5.6). For β-hematin inhibitory activity (BHIA) under the reducing condition (R-BHIA), hemin (10 µL) and GSH (10 µL) were distributed in a 96-well plate and homogenized, and the plates were sealed using a thin plastic film and incubated for 1 h at 37°C. Then, 20 µL of the drug was added, and the plates were incubated for 2 h at 37°C. The plastic film was removed after drug incubation, 160 µL propionate buffer (1.0 M, pH 5.6) was added, and plates were incubated for 18 h at 37°C. BHIA under the oxidizing condition (O-BHIA) was prepared in parallel without adding GSH. Controls included wells without drugs and wells containing PBS 1× instead of propionate buffer. Afterward, the plates were centrifuged, the supernatant was discarded, and the pellets of β-hematin crystals were washed twice with pure DMSO and then water. The resulting β-hematin crystals were then dissolved in 200 µL 0.1 M NaOH and diluted to a 1:8 ratio. Aliquots were then transferred into a new plate and read by UV-visible absorbance at […]. Percent of BHIA was calculated in comparison to untreated wells (no drugs), and IC50 was then calculated. Two independent experiments were performed using three replicates of each drug concentration ([46]).
as §1

Compound: C[C@@H]1CC[C@H]2[C@@H](C)C(=O)O[C@@H]3O[C@@]4(C)CC[C@@H]1[C@]32OO4 [ART, artemisinin]
IC50 (P. falciparum 3D7 strain): 26.8 ± 2.4 nM
IC50 (P. falciparum Dd2 strain): 11.3 ± 1.8 nM
In vivo parasitemia reduction (%) (P. berghei-infected mice): 78.5 ± 9.0%

Compound: CC(C)(N)CNC(=O)C[C@H]1CC[C@]2(CC1)OO[C@]1(O2)C2CC3CC(C2)CC1C3 [OZ277]
half-life (t1/2) [1]: 2 to 4 h

IC50 ([2]; asynchronous parasites, 6 h drug, wash, additional 66 h, read-out: IC50, Asynchronous): 61.6 ± 11.9 nM
IC50 ([2]; asynchronous parasites, 72 h continuous drug, read-out: IC50, 72 h): 20.2 ± 1.3 nM
IC50 ([2]; synchronized ring stages, 6 h drug, wash, additional 66 h, read-out: IC50, Ring stages): 37.2 ± 5.2 nM
IC50 ([3]; NF54, ring stages NF54, read-out: IC50, Drugs alone): 17 nM
IC50 ([4]; NF54, 6 h drug pulse, wash, incubated until 72 h, median ± SEM, read-out: IC50, 6 h + 66 h): 37.2 ± 5.2 nM
IC50 ([4]; NF54, 72 h continuous drug, median ± SEM, read-out: IC50, 72 h): 10.3 ± 2.6 nM
IC50 ([4]; NF54, read-out: IC50, 3 h + 69 h, 3 h drug pulse, wash, incubated until 72 h, median ± SEM): > 600 nM
Compound: OC(c1cc(C(F)(F)F)nc2c(C(F)(F)F)cccc12)C1CCCCN1 (stereo not drawn) [MFQ, mefloquine, reference compound]

Compound: CCN(CC)CCCC(C)Nc1ccnc2cc(Cl)ccc12 (stereo not drawn) [CQ, chloroquine, reference compound]
IC50 (P. falciparum): 14.5 nM
IC50 (P. falciparum 3D7 strain): 12.7 ± 2.5 nM
IC50 ([5]; reductive step 10 minutes, read-out: IC50 (µM) values of R-BHIA using heme (iron II), 10 minutes): 189 µM
IC50 ([5]; reductive step 120 minutes, read-out: IC50 (µM) values of R-BHIA using heme (iron II), 120 minutes): 222 µM
IC50 [6]: 228 µM
IC50 ([3]; NF54, read-out: IC50, Drugs alone, ring stages NF54): 10.4 nM
IC50 (P. falciparum Dd2 strain): 165 ± 16 nM
